Values quoted from earlier work as cited in PMC8136953 (Veterinary Medicine and Science, 2020).
Where two headings read alike, the source gives them in different places.

Legend:
[1] = design: method as in de Ocenda et al. (2017); settings: 35‰, SO‐FA, 100 mg/kg fish, 101 g, 16 °C; ref de Ocenda et al. (2017); cited from earlier work
[2] = design: method as in Kosoff et al. (2009); settings: 0‰, MO, 10 × 10d mg/kg fish, 49–52 g, 20–25 °C; ref Kosoff et al. (2009); cited from earlier work
[3] = design: method as in Xie et al. (2013); settings: 0‰, SO‐FA, 20 mg/kg fish, 71 g, 25 °C; ref Xie et al. (2013); cited from earlier work
[4] = cited from earlier work; for Primary route of excretion of FLO and its metabolites: single oral dose 10 mg/kg fish, ref Feng et al. (2008)
[5] = cited from earlier work
[6] = design: method as in Huang et al. (2019); settings: 0‰, 50 g, ref Huang et al. (2019), cited from earlier work; for C max / T max / t 1/2b: SO‐FA, 25 mg/kg fish
[7] = 28‰, MO, 10 × 10d mg/kg fish, 150 g, 27 °C; ref Di Salvo et al. (2013); cited from earlier work
[8] = cited from earlier work; remark: listed apart in the source
[9] = design: method as in Kosoff et al. (2009); settings: 26–30‰, MO, 10 × 10d mg/kg fish, 384–426 g, 20–25 °C; ref Kosoff et al. (2009); cited from earlier work
[10] = design: method as in Table 4; settings: after dietary delivery, different environmental conditions; ref Table 4; cited from earlier work
[11] = design: method as in Wrzesinski et al. (2006); settings: 0‰, MO, 10 × 12d mg/kg fish, 916 g, 18–20 °C; ref Wrzesinski et al. (2006); cited from earlier work
[12] = design: method as in Yanong et al. (2005); settings: 0‰, SO, 50 mg/kg fish, 144 g, 23–25 °C; ref Yanong et al. (2005); cited from earlier work
[13] = design: method as in Kverme et al. (2019); settings: 34‰, SO‐FA, 10 mg/kg fish, 114 g, 12 °C; ref Kverme et al. (2019); cited from earlier work
[14] = design: method as in Lim et al. (2010); settings: ref Lim et al. (2010), cited from earlier work
[15] = design: method as in Chang et al. (2019); settings: 31‰, SO‐FA, 30 mg/kg fish, 615 g, ref Chang et al. (2019), cited from earlier work
[16] = 0‰, SO‐FA, 10 mg/kg fish, 98 g, 22 °C, ref Feng and Jia (2009)
[17] = 30‰, SO‐FA, 10 mg/kg fish, 194 g, 11 °C, ref Martinsen et al. (1993)
[18] = 0‰, MO, 10 × 10d mg/kg fish, 444–474 g, 25–30 °C, ref Kosoff et al. (2009)
[19] = 0‰, MO, 15 × 10d mg/kg fish, 100–500 g, 25 °C, ref Bowser et al. (2009)
[20] = 0‰, SO‐FA, 15 mg/kg fish, 500–700 g, 24 °C, ref Rairat et al. (2019)
[21] = 0‰, SO‐FA, 15 mg/kg fish, 500–700 g, 28 °C, ref Rairat et al. (2019)
[22] = 0‰, SO‐FA, 15 mg/kg fish, 500–700 g, 28 °C, ref Rairat et al. (2020)
[23] = 0‰, SO‐FA, 15 mg/kg fish, 500–700 g, 32 °C, ref Rairat et al. (2019)
[24] = 2‰, SO‐FA, 15 mg/kg fish, 500–700 g, 28 °C, ref Rairat et al. (2020)
[25] = 4‰, SO‐FA, 15 mg/kg fish, 500–700 g, 28 °C, ref Rairat et al. (2020)
[26] = 8‰, SO‐FA, 15 mg/kg fish, 500–700 g, 28 °C, ref Rairat et al. (2020)
[27] = 15‰, SO‐FA, 15 mg/kg fish, 500–700 g, 28 °C, ref Rairat et al. (2020)
[28] = 33‰, MO, 20 × 3d mg/kg fish, 380 g, 19 °C

For `CS(=O)(=O)c1ccc([C@@H](O)[C@@H](CF)NC(=O)C(Cl)Cl)cc1` [FLO, florfenicol], the C max [1] is given as 55400 ng/mL, the T max [1] is given as 12 h and the C max [2] is given as 9200 to 15100 ng/mL. The WT [2] was 232 to 302 h, the C max [3] was 8400 ng/mL and the T max [3] was 5 h. The “t 1/2b” value [3] was 13.5 h, the C max [4, 16] was 4500 ng/mL and the T max [4, 16] was 12 h. For the same compound, the “t 1/2b” value [4, 16] was 10.0 h, the “Primary route of excretion of FLO and its metabolites” value ([4]; freshwater hybrid tilapia) was “the bile duct” and the “Primary route of excretion of FLO and its metabolites” value ([4]; seawater tilapia) was “mostly the gills”. The C max [5, 17] was 4000 ng/mL, the T max [5, 17] was 10.3 h and the C max ([5]; 35‰, MO, 10 × 10d mg/kg fish, 497 g, 10 °C, ref Horsberg et al. (1996)) was 8560 ng/mL. The C max ([5]; 35‰, SO‐FA, 10 mg/kg fish, 460 g, 10 °C, ref Horsberg et al. (1996)) was 9100 ng/mL, the WT ([6]; MO‐FA, 25 × 3d mg/kg fish, 28 °C) was 198 h and the C max ([6]; 18 °C) was 5900 ng/mL. For the same compound, the T max ([6]; 18 °C) was 6.0 h, the “t 1/2b” value ([6]; 18 °C) was 26.8 h and the C max ([6]; 28 °C) was 6200 ng/mL. For the same compound, the T max ([6]; 28 °C) was 2.8 h, the “t 1/2b” value ([6]; 28 °C) was 16.1 h and the WT [7] was 95 h. The C max [8, 18] was 6500 to 6700 ng/mL, the WT [8, 18] was 98 to 146 h and the C max [8, 19] was 7100 to 15200 ng/mL. The WT [8, 19] was >288 h, the “t 1/2b” value [8, 19] was 1.2 to 2.2 h and the C max [8, 20] was 23100 ng/mL. The T max [8, 20] was 1.4 h, the “t 1/2b” value [8, 20] was 12.4 h and the C max [8, 21] was 16700 ng/mL. For the same compound, the T max [8, 21] was 1.2 h, the “t 1/2b” value [8, 21] was 9.5 h and the C max [8, 22] was 24000 ng/mL. The T max [8, 22] was 0.8 h, the “t 1/2b” value [8, 22] was 11.3 h and the C max [8, 23] was 16700 ng/mL. For the same compound, the T max [8, 23] was 0.8 h, the “t 1/2b” value [8, 23] was 7.3 h and the “t 1/2b” value ([8]; 2‰, SO‐FA, 15 mg/kg fish, 500–700 g, 28 °C, ref Rairat et al. (2020), 15 mg/kg) was 10.7 h. For the same compound, the C max [8, 24] was 21600 ng/mL, the T max [8, 24] was 0.9 h and the C max [8, 25] was 21800 ng/mL. The T max [8, 25] was 0.9 h, the “t 1/2b” value [8, 25] was 10.6 h and the C max [8, 26] was 24400 ng/mL. For the same compound, the T max [8, 26] was 0.9 h, the “t 1/2b” value [8, 26] was 10.2 h and the “t 1/2b” value ([8]; 15‰, SO‐FA, 15 mg/kg fish, 500–700 g, 28 °C, ref Rairat et al. (2020), 15 mg/kg) was 8.9 h. The C max [8, 27] was 22700 ng/mL, the T max [8, 27] was 1.0 h and the C max [9] was 1800 to 3500 ng/mL. For the same compound, the WT [9] was 17 to 62 h, the “Maximum plasma concentration in other farmed fish species” value [10] was 1.8 to 55 µg/mL and the WT [11] was 96 h. For the same compound, the C max [12] was 12300 ng/mL, the T max [12] was 3 h and the C max [13] was 3600 ng/mL. The T max [13] was 21.2 h, the “t 1/2b” value [13] was 21.2 h and the C max [14, 28] was 12200 ng/mL. For the same compound, the WT [14, 28] was 189 h, the Tissue distribution ([14]; multiple oral 20 mg kg^−1 day^−1 for three consecutive days) was “higher tissue concentrations of FLO in gills than in the other tested tissue samples” and the C max ([15]; 15 °C) was 9100 ng/mL. For the same compound, the “t 1/2b” value ([15]; 15 °C) was 14.3 h, the T max ([15]; 15–20 °C) was 12 h and the C max ([15]; 20 °C) was 12200 ng/mL. For the same compound, the “t 1/2b” value ([15]; 20 °C) was 9.7 h.
